System: retinal ganglion cells
Assay: Survival of retinal ganglion cells exposed to glutamate (NMDA neurotoxicity)
Format: cell-based, rat
Description: To investigate the influence of redox modulation on NMDA neurotoxicity, survival of an identified central neuron, the retinal ganglion cell, was monitored for 12-24 hr after a brief (5-10 min.) exposure to DTT. To determine the degree of killing specifically related to activation of the NMDA receptor, APV at 200 μM was added to sibling cultures. APV-preventable, glutamate-induced death was increased 70±9% with DTT treatment.
Retinal ganglion cell neurons were labeled in situ, dissociated from the retina, and cultured as follows. Retinal ganglion cells from 7- to 12-day-old Long-Evans rats were labeled and enzymatically dissociated as described by Leifer et al., Science 224: 303, 1984. Following rinse of the dissociated retinal cells with a physiological saline based on Hanks' salts (composition in mM: NaCl, 137; NaHCO3, 1; Na2HPO4, 0.34; KCl, 5,36; KH2PO4, 0.44; CaCl2, 1.25, MgSO4, 0.5; MgCl2, 0.5; N-2-hydroxyethyl-piperazine-N′-2-ethanesulfonic acid (HEPES), 5; dextrose, 22.2; Phenol Red, 0.001% v/v; adjusted to pH 7.2 with 0.3 M NaOH), the cells were mechanically dispersed and aliquoted to treatment vials. These vials contained control saline solution, or saline solution with either 0.5-2 mM DTT, or 0.5 mM DTT in the presence of 1 mM DTNB. Treatment groups with DTNB were readjusted to pH 7.2 with 0.3 M NaOH. Cells were agitated gently over a 5-10 min period. After treatment, 100 μl volumes of the cell suspension were plated onto glass coverslips coated with poly-L-lysine in 35×10 mm tissue-culture dishes containing 2 ml of culture medium. The cell culture medium was based on Eagle's minimum essential medium (MEM), modified so that it was nominally free of magnesium and contained 10 mM CaCl2 to enhance NMDA receptor-mediated neuro-toxicity. The medium was also supplemented with methylcellulose 0.7% w/v, gentamicin 1 μg/ml, dextrose 16 mM, and rat serum 5% v/v. Glutamate levels in the culture medium were monitored by HPLC analysis. Concentrations of glutamate added to the medium of each experiment to induce cell killing averaged 10 μM (day to day variability in neuronal cell death was most probably due to slight variations in the amount of endogenous glutamate or a glutamate-like substance in these cultures). The 100 μl aliquots of cell suspension diluted into the 2 ml of MEM produced a final concentration of 50 μM Mg^2+, as well as levels of DTT and DTNB at 5% of their initial treatment concentrations. The cell cultures were incubated for 12-24 hours at 37° C. in an atmosphere of 5% CO2/95% humidified air. Neuronal survival was then scored by counting retinal ganglion cells displaying uptake and cleavage of fluorescein diacetate to fluorescein, as described by Hahn et al. Proc. Nat. Acad. Sci. USA 85:6556, 1988.
Experiments were conducted in triplicate and repeated on eleven separate days. In order to compare results obtained on different days, data were normalized such that the total number of surviving neurons in a given experiment divided by the number of treatment categories (i.e., 4) equalled 100.
Retinal cells were cultured as described in Example 1. In these experiments transient exposure to the reduced form of DTT (500 μM) occurred in the presence of DTNB (1 mM).

SMILES: O[C@@H](CS)[C@@H](O)CS [DTT, dithothreitol]
- death of retinal ganglion cells exposed to glutamate in the culture medium (APV 200 μM, DTT transient exposure, 12-24 hr): substantially increased death
- increase of APV-preventable, glutamate-induced death (brief (5-10 min) exposure to DTT, survival monitored 12-24 hr): 70±9%

SMILES: O=C(O)c1cc(SSc2ccc([N+](=O)[O-])c(C(=O)O)c2)ccc1[N+](=O)[O-] [DTNB, 5′-5′-dithiobis-2-nitrobenzoic acid]
- DTT-enhanced glutamate-induced death with concomitant DTNB (0.5 mM DTT in the presence of 1 mM DTNB): totally blocked

Source: patent US6525017B1, “Using glutathiane to protect neurons from injury” (The Children's Medical Center Corporation, priority 1989, dated 2003)
